One molecule from publication PMC8910920 (International Journal of Molecular Sciences, 2022) can be followed below.

For data set [1], the target named is T1, hM3 (Homo sapiens, UniProt P20309).
T1 construct: host or cells: CHO
As to the kind of experiment: Radioligand binding assay, CHO cells, hM3. The settings on record: radioligand [3H]4-DMAP. As for the experimental part:
To define whether β–lactam derivative RGM8-51 could bind to CGRPR, CB2 and M3 receptors, in vitro binding assays were performed, using CHO cell lines transfected with these receptors. The degree of binding was determined by using specific radioligands for each receptor (Table 2, footnote).
These studies were subcontracted to Eurofins-CEREP or Eurofins-PANLABS. Briefly, agonists and antagonist assays were performed in cell cultures overexpressing the corresponding channel (CHO: TRPV1 and TRPA1; HEK293: TRPV3 and ASIC3). In vitro pharmacology, cellular channel functional assays: the compound was prepared in assay buffer to the final concentration, 10 μM. […] The agonist assay was conducted on fluorimeter instruments where the test compound, vehicle controls, and reference agonist were added to the assay plate after a fluorescence baseline was established. […] For the antagonist assay, the compound was pre-incubated for five minutes at room temperature, and then challenged with the EC80 concentration of the reference agonist after establishment of a fluorescence baseline. […] Binding assay results are expressed as a percent of control specific binding. […] Aqueous solubility (μM) was determined by comparing the peak area of the principal peak in a calibration standard (200 μM) containing organic solvent (methanol/water, 60/40, v/v) with the peak area of the corresponding peak in a buffer sample. […]

Data set [2] concerns the target T2, hTRPM8 (Homo sapiens, UniProt Q7Z2W7).
T2 construct: expressed in transfected cells
Briefly: Ca2+ microfluorography assay, HEK293 cells expressing hTRPM8. It is filed as cell-based. The settings on record: HEK293-hTRPM8, 100 μM menthol. The method, then:
This represents a similar activity as β–lactam 2 and a somewhat higher potency than the model TRPM8 antagonists AMTB.
To measure the effect of the compounds against TRPM8 activity we used microfluorometry-based calcium flux assays with Fluo-4 NW Ca^2+ dye and fluorescence as described in [30]. Briefly, human embryonic kidney cell line (HEK293) cells stably transfected with rTRPM8 or hTRPM8 were seeded in 96-well plates at a cell density of 30,000 cells. After 2 days the medium was replaced with 100 μL of the dye, Fluo-4 NW, loading solution supplemented with probenecid 2.5 mM and incubated 1 h at 37 °C. The TRPM8 activity was measured using POLASTAR plate reader (BMG Labtech) setting the excitation wavelength at 485 nm and the emission wavelength at 520 nm. The baseline fluorescence was recorded for 3 cycles before the addition of vehicle compound at different concentrations and the antagonist, 10 μM AMTB. Fluorescence intensity was recorded during 7 more cycles and 100 μM menthol was added. Fluorescence intensity was recorded during 10 more cycles.
Data analysis: The Z-factor was calculated in each assay using the following equation: (3 × (SDmax + SDmin))/(Mean max-Mean min). In all the experiments, the Z-factor was ≥0.5. The effect of the compounds against TRPM8 activity was determined by normalizing their effect on the maximum fluorescence observed after application of 100 μM menthol. […]

For data set [3], the system named is rats. As to the kind of experiment: Behaviour observed after i.p. injection in the CCI study. It counts as in vivo, rat. The settings on record: i.p. 30 mg/kg. The method, then: This behavior lasted 3-5 min and could possibly be related to the TRPV1 agonist activity of compound RGM8-51.
Rats were allocated into 2 groups to receive RGM8-51 and vehicle (DMSO 2% i.pl., or 150 µL/kg i.p.) by either the i.pl. (10 µg in 20 µL; n = 5 animals) or i.p. (10 or 30 mg/kg in 150 µL/kg; n = 8 animals) route. Responses to cold/heat/mechanical stimulation were assessed 30 min before and 30 min after RGM8-51 or vehicle injection. Behavioral testing prior to drug administration served to ascertain baseline conditions and the stability of cold, heat and mechanical hypersensitivity after surgery. RGM-8-51 stock was prepared in DMSO (Sigma-Aldrich) and diluted in saline for injections. Data are given as the mean ± standard error of the mean (SEM) of the corresponding number of behavioral measurements/animals used. Statistical analysis was performed by using the paired t-test (GraphPad 8; San Diego, CA, USA).

T1 sequence (P20309 whole entry): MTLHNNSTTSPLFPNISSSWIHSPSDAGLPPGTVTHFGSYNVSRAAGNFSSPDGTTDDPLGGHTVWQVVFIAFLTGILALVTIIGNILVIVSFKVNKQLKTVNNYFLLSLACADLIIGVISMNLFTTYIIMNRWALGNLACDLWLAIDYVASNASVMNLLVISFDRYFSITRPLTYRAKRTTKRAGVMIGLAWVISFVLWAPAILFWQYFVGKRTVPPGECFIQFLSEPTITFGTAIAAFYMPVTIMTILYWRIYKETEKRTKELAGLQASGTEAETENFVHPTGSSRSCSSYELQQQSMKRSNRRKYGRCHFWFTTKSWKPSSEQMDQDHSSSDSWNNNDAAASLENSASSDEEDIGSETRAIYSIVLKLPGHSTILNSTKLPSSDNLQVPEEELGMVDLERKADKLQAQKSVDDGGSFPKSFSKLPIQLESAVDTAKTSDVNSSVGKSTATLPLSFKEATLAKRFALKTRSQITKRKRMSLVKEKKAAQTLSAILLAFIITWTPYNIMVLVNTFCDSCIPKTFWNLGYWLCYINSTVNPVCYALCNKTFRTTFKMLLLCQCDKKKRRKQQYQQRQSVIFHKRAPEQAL
T2 sequence (Q7Z2W7 whole entry): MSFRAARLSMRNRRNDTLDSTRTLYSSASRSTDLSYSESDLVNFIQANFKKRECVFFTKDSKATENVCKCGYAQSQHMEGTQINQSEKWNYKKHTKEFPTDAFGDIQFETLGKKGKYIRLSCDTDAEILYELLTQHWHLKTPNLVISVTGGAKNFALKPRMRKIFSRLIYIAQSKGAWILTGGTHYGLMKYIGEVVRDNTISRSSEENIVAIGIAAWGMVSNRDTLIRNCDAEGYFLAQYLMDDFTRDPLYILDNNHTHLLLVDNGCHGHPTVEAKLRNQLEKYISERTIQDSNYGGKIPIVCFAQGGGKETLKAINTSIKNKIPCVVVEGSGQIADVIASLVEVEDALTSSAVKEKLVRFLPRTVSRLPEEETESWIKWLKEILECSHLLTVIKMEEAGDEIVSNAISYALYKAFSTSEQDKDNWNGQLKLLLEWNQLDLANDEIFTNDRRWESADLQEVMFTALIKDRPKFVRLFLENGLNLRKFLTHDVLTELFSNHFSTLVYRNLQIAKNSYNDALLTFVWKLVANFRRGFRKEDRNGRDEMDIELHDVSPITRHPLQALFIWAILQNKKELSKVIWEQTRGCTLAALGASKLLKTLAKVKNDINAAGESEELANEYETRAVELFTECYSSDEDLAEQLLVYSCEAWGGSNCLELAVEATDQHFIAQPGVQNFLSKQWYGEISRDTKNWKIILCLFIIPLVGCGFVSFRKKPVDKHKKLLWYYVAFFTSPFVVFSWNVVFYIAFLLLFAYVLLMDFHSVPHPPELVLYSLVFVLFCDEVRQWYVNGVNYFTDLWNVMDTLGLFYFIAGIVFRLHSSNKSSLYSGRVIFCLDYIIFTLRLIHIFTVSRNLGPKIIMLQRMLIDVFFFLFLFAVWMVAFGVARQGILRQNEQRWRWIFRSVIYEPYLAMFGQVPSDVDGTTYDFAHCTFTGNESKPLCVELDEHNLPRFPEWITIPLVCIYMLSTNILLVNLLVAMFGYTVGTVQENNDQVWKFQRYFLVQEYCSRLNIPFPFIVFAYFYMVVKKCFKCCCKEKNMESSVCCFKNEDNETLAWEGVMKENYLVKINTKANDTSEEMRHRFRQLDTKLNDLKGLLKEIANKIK

As a reminder, the inhibition is the drop in the measured response relative to a control, in per cent. Broadly, the IC50 is the point on the concentration scale where inhibition reaches its midpoint. For `C[C@@H]1C(=O)N(C[C@H](Cc2ccccc2)N(Cc2ccccc2)Cc2ccccc2)[C@]1(Cc1ccccc1)C(=O)OC(C)(C)C` [RGM8-51, 4(S)-Benzyl-3S-methyl-4-(tert-butoxy)carbonyl-1-[(2′S-dibenzylamino-3′-phenyl)prop-1′-yl]-2-oxoazetidine], the “Binding hM3 (%), inhibition of specific binding” value in data set [1] (10 μM) is recorded as “did not show significant affinity”. In data set [1] (read-out: Binding hM3 (%), inhibition of specific binding), the inhibition at 10 µM is -4.1 ± 3.1%. The same molecule displayed an IC50 in data set [2] of 1740 ± 1190 nM. In data set [3], the “duration of writhing behavior” value was 3 to 5 min and the writhing behavior result is “writhing behavior was observed in a small number of animals”.
